Experimental data as given in ChEMBL document CHEMBL6103581, “Identification of Thieno[3,2-d]pyrimidine derivatives as potent and selective Janus Kinase 1 inhibitors” (Eur J Med Chem, 2025).

Tests used:
[1] = test system: BaF3; test: Antiproliferative activity against mouse parental BaF3 cells assessed as cell growth inhibition incubated for 72 hrs by Cell-TiterGlo assay; type: functional
[2] = Antiproliferative activity against mouse Ba/F3-TEL-JAK1 cells assessed as cell growth inhibition incubated for 72 hrs by Cell-TiterGlo assay; type: functional
[3] = test system: NCI-H1975; test: Antiproliferative activity against human NCI-H1975 cells assessed as cell growth inhibition incubated for 72 hrs by Cell-TiterGlo assay; type: functional
[4] = test system: NCI-H2087; test: Antiproliferative activity against human NCI-H2087 cells assessed as cell growth inhibition incubated for 72 hrs by Cell-TiterGlo assay; type: functional
[5] = target: Tyrosine-protein kinase JAK2 (Homo sapiens, UniProt O60674); test: Inhibition of N-terminal GST-tagged human recombinant JAK2 (804 to end residues) extracted from baculovirus infected in Sf9 cells using IGF1Rtide as substrate preincubated for 15 min followed by substrate addition and measured after 1 hr by ADP-Glo kinase assay
Sequence of Tyrosine-protein kinase JAK2 (O60674 whole entry): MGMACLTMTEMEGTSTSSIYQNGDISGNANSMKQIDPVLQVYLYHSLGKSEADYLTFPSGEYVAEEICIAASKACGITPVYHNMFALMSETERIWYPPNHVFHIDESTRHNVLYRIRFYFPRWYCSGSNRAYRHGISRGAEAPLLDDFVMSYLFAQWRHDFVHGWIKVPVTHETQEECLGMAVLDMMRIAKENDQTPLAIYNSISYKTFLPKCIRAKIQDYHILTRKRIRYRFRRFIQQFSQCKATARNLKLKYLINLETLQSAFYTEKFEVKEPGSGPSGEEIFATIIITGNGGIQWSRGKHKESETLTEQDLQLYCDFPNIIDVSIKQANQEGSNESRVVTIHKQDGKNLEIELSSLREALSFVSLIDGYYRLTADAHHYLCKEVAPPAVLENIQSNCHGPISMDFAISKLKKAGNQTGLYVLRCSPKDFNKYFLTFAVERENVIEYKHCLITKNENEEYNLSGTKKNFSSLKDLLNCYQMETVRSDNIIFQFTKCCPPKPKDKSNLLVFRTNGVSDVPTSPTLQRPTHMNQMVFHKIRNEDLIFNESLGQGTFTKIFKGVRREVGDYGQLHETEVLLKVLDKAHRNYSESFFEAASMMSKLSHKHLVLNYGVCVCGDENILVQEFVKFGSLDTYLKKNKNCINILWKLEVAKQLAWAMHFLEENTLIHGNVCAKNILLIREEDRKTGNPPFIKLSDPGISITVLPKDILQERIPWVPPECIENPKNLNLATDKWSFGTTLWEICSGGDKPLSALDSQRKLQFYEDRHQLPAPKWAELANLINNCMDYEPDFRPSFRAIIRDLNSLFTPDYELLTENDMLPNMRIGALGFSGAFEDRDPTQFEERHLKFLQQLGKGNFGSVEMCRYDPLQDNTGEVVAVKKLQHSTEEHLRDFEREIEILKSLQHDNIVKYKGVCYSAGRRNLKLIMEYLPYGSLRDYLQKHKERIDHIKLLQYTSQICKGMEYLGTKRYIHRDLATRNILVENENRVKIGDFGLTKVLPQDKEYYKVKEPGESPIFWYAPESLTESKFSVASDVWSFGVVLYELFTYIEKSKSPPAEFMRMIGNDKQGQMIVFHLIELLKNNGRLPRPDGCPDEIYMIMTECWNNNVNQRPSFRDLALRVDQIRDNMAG

[6] = target: T1, Tyrosine-protein kinase JAK3 (Homo sapiens, UniProt P52333); test: Inhibition of N-terminal GST-tagged human recombinant JAK3 (781 to end residues) extracted from baculovirus infected in Sf9 cells using Poly(4:1 Glu, Tyr) as substrate preincubated for 15 min followed by substrate addition and measured after 1 hr by ADP-Glo kinase assay
T1 sequence (P52333 whole entry): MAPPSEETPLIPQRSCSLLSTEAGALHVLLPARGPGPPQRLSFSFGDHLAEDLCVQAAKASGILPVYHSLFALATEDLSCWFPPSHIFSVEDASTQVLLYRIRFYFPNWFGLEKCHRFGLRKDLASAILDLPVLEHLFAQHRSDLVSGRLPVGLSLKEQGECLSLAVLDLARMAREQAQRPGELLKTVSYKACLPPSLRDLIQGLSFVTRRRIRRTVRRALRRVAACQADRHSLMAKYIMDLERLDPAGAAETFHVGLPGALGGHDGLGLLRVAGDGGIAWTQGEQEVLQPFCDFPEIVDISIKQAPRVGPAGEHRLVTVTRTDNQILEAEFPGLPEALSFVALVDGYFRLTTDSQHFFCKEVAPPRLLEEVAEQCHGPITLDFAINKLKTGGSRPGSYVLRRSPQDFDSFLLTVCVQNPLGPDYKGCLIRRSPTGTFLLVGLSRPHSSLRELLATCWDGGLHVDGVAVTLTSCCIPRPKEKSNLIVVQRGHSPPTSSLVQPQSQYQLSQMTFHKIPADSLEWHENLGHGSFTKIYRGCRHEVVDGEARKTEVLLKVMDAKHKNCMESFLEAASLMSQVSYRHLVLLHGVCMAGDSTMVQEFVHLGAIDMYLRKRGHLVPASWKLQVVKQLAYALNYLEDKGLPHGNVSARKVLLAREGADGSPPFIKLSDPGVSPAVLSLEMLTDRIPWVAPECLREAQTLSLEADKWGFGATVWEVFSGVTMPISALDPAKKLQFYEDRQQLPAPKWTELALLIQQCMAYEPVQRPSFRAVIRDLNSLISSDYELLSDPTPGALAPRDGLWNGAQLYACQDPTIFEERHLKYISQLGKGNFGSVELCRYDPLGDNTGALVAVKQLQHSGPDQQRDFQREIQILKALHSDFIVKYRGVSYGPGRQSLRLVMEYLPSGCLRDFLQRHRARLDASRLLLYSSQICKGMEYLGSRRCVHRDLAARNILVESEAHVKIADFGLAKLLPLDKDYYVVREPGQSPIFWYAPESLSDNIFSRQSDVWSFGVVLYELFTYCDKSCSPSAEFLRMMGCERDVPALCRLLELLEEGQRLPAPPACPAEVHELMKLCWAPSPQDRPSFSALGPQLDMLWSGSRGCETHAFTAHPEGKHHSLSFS

Row | SMILES | GI50 [3] [µM] | GI50 [4] [µM] | IC50 [5] [µM] | IC50 [6] [µM] | GI50 [1] [µM] | GI50 [2] [µM]
1 | C[C@H](C(=O)Nc1cccc(-c2csc3cnc(Nc4cn(C)nc4C(F)(F)F)nc23)c1)N1CCN(C)CC1 | 7.4 | 3.03 | – | – | 2.77 | 1.93
2 | C[C@H](C(=O)Nc1cccc(-c2csc3cnc(Nc4cccc(S(C)(=O)=O)c4F)nc23)c1)N1CCN(C)CC1 | 12.6 | 6.28 | – | – | 0.677 | 0.641
3 | Cc1ncccc1Nc1ncc2scc(-c3cccc(NC(=O)[C@@H](C)N4CCN(C)CC4)c3)c2n1 | 23.1 | 6.42 | – | – | 2.74 | 1.97
4 | C[C@@H]1CCN(C(=O)CC#N)C[C@@H]1N(C)c1ncnc2[nH]ccc12 [TOFACITINIB] | > 50 | > 50 | – | – | 1.81 | 0.495
5 | COc1ncccc1Nc1ncc2scc(-c3cccc(NC(=O)[C@@H](C)N4CCN(C)CC4)c3)c2n1 | 10.5 | 3.27 | – | – | 2.59 | 1.77
6 | C[C@H](C(=O)Nc1cccc(-c2csc3cnc(Nc4nnn(C)n4)nc23)c1)N1CCN(C)CC1 | 27.9 | 6.47 | – | – | 6.09 | 7.17
7 | Cc1ccc(Nc2ncc3scc(-c4cccc(NC(=O)[C@@H](C)N5CCN(C)CC5)c4)c3n2)cn1 | 9.18 | 2.67 | – | – | 2.52 | 0.994
8 | COc1nn(C)cc1Nc1ncc2scc(-c3cccc(N)c3)c2n1 | 4.49 | 4.6 | 0.154 | 0.068 | 1.01 | 0.313
9 | COc1n[nH]cc1Nc1ncc2scc(-c3cccc(NC(=O)[C@@H](C)N4CCN(C)CC4)c3)c2n1 | 16.5 | 8.62 | – | – | 1.24 | 0.62
10 | COc1nn(C)cc1Nc1ncc2scc(-c3cccc(NC(=O)[C@@H](C)N4CCN(C(C)=O)CC4)c3)c2n1 | 23.6 | 21.1 | – | – | 1.69 | 1.89
11 | COc1nn(C)cc1Nc1ncc2scc(-c3cccc(NC(=O)[C@@H](C)N4CCN(C(=O)C(F)(F)F)CC4)c3)c2n1 | 7.36 | 3.48 | – | – | 1.04 | 0.351
12 | COc1nn(C(C)=O)cc1Nc1ncc2scc(-c3cccc(NC(=O)[C@@H](C)N4CCN(C)CC4)c3)c2n1 | 4.61 | 3.28 | – | – | 2.27 | 2.42
13 | C=CC(=O)N1C[C@H](Nc2ncnc3[nH]ccc23)CC[C@@H]1C [RITLECITINIB] | > 50 | > 50 | – | – | > 50 | > 50
14 | Cc1cc(Nc2ncc3scc(-c4cccc(NC(=O)[C@@H](C)N5CCN(C)CC5)c4)c3n2)n(C)n1 | 7.34 | 7.05 | – | – | 4.26 | 1.6
15 | COc1nn(C)cc1Nc1ncc2scc(-c3cccc(NC(=O)[C@@H](C)N4CCN(C(=O)CC#N)CC4)c3)c2n1 | 40.3 | 23.3 | – | – | 3.98 | 2.44
16 | COc1nn(C)cc1Nc1ncc2scc(-c3cccc(NC(=O)[C@@H](C)N4CCN(C5CCOCC5)CC4)c3)c2n1 | 23.4 | 8.98 | – | – | 1.37 | 1.22
17 | COc1nn(C)cc1Nc1ncc2scc(-c3cccc(NS(C)(=O)=O)c3)c2n1 | 4.53 | 8.22 | – | – | 0.781 | 0.659

The next lines start with results.

Row | GI50 [3] [µM] | GI50 [4] [µM] | IC50 [5] [µM] | IC50 [6] [µM] | SMILES | GI50 [1] [µM] | GI50 [2] [µM]
18 | 27.2 | 6.49 | – | – | Cc1ccc(Nc2ncc3scc(-c4cccc(NC(=O)[C@@H](C)N5CCN(C)CC5)c4)c3n2)c(C)n1 | 7.83 | 5.45
19 | 10.2 | 13.1 | 3.02 | 0.248 | COc1nn(C)cc1Nc1ncc2scc(-c3cccc(NC(=O)[C@H]4CCCN4C(C)=O)c3)c2n1 | 4.06 | 0.897
20 | 8.98 | 9.5 | – | – | COc1nn(C)cc1Nc1ncc2scc(-c3cccc(NC(=O)[C@H]4CCCN4S(C)(=O)=O)c3)c2n1 | 6.16 | 3.1
21 | 11 | 4.26 | – | – | COc1nn(C)cc1Nc1ncc2scc(-c3cccc(NC(=O)[C@H]4CCCN4C4CCN(C)CC4)c3)c2n1 | 2.25 | 1.61
22 | 20.2 | 22.2 | – | – | COc1nn(C)cc1Nc1ncc2scc(-c3cccc(NC(=O)[C@@H](C)N4CCN(S(C)(=O)=O)CC4)c3)c2n1 | 3.77 | 2.45
23 | 8.86 | 3.74 | – | – | COc1nn(C)cc1Nc1ncc2scc(-c3cccc(NC(=O)[C@@H]4CCCN4)c3)c2n1 | 3.33 | 1.22
24 | 15.4 | 3.61 | – | – | COc1nn(C)cc1Nc1ncc2scc(-c3cccc(NC(=O)[C@@H](C)N4CCN(C(C)C)CC4)c3)c2n1 | 1.05 | 0.519
25 | 28.9 | 7.82 | – | – | Cc1ccnc(C)c1Nc1ncc2scc(-c3cccc(NC(=O)[C@@H](C)N4CCN(C)CC4)c3)c2n1 | 17.3 | 16.2
26 | 10.4 | 5.57 | – | – | COc1nn(CCO)cc1Nc1ncc2scc(-c3cccc(NC(=O)[C@@H](C)N4CCN(C)CC4)c3)c2n1 | 1.04 | 0.809
27 | 21 | 9.31 | – | – | COc1nn(C)cc1Nc1ncc2scc(-c3cccc(NC(=O)[C@H]4CCCN4C4CCOCC4)c3)c2n1 | 6.37 | 2.79
28 | > 50 | 16.4 | – | – | COc1nn(C)cc1Nc1ncc2scc(-c3cccc(NC(=O)[C@@H](C)N4CCN(C5COC5)CC4)c3)c2n1 | 6.07 | 6.78
29 | 5.26 | 1.51 | 1.6 | 0.069 | COc1nn(C)cc1Nc1ncc2scc(-c3cccc(NC(=O)[C@H]4CCCN4)c3)c2n1 | 3.31 | 0.744
30 | 18.5 | 13.5 | – | – | C[C@H](C(=O)Nc1cccc(-c2csc3cnc(Nc4cccnc4O)nc23)c1)N1CCN(C)CC1 | 6.16 | 7.31
31 | > 50 | > 44 | 0.295 | 0.05 | COc1nn(C)cc1Nc1ncc2scc(-c3cccc(NC(C)=O)c3)c2n1 | 4.16 | 0.331
32 | 13.5 | 10.5 | – | – | C=CC(=O)N1CCN([C@H](C)C(=O)Nc2cccc(-c3csc4cnc(Nc5cn(C)nc5OC)nc34)c2)CC1 | 1.62 | 1.7
33 | 4.26 | 1.66 | – | – | COc1nn(C)cc1Nc1ncc2scc(-c3cccc(NC(=O)[C@@H](C)N4CCNCC4)c3)c2n1 | 0.507 | 0.188
